Values of other authors, collected in PMC11187573, “Identification of SARS-CoV-2 Mpro inhibitors through deep reinforcement learning for de novo drug design and computational chemistry approaches” (RSC Medicinal Chemistry, 2024).
Where two headings read alike, the source gives them in different places.

Tested on: Mpro
Conditions: ML dataset, cited from earlier work
[1] = Origin COVID_Moonshot, ref COVID Moonshot

Compound | IC50 [1] | IC50 (Origin ChEMBL, ref ChEMBL)
COc1ccc(N(C(=O)c2c[nH]cn2)C(C(=O)NCCc2cccc(F)c2)c2cccnc2)cc1 (centres unmarked) [BRU-THA-92256091-19] | 93.7 µM | 
COc1nccnc1C(C(=O)NCCc1cccc(F)c1)N(C(=O)c1cocn1)c1ccc(C(C)(C)C)cc1 (centres unmarked) [ALP-POS-d0876c20-15] | 94.9 µM | 
O=C(Cc1cccc(Cl)c1F)Nc1cncc2ccccc12 [RAL-THA-2d450e86-19] | 23.6 µM | 
O=C(Nc1cccnc1)c1cc(Cl)ccc1-c1ccccc1 [CHR-SOS-7098f804-14] | 39.1 µM | 
O=C(Cc1cccc(Cl)c1)Nn1nnc2ccccc21 | 18.4 µM | 
COC(=O)C1(NC(=O)C(c2cccnc2)N(C(=O)c2cocn2)c2ccc(C(C)(C)C)cc2)CCCC1 (centres unmarked) [ALP-POS-88a7a97e-36] | 5.26 µM | 
CC(C)(C)c1ccc(N(C(=O)c2ncc[nH]2)C(C(=O)NCCc2cccc(F)c2)c2cccnc2)cc1 (centres unmarked) [ALP-POS-02c6a514-46] | 5.29 µM | 
COc1ccccc1OCCC(=O)Nc1cncc2ccccc12 [MAR-UCB-f313ec4d-3] | 90.9 µM | 
CC(C)(C)c1ccc(N(C(=O)c2cocn2)C(C(=O)NCCN2CCOCC2)c2cccnc2)cc1 (centres unmarked) [ALP-POS-88a7a97e-47] | 82.5 µM | 
O=C(Oc1cncc(Cl)c1)c1cc2ccccc2o1 [CHEMBL426898, O=C(c1cc(cccc2)c2o1)Oc1cc(Cl)cnc1, reference compound] |  | 0.17 µM
Cn1cnc(C(=O)N(c2ccc(C(C)(C)C)cc2)C(C(=O)NCCc2cccc(F)c2)c2cccnc2)n1 (centres unmarked) [ALP-POS-305f6ec3-55] | 74.2 µM | 
COc1ccc(N(Cc2cccc(Cl)c2)C(=O)Cn2nnc3ccccc32)cc1 [CHO-MSK-00c5269a-2] | 3.4 µM | 
O=C(Cc1cccc(Cl)c1)Nc1cnc2ccccn12 | 8.03 µM | 
O=C(Nc1cncc2ccccc12)C1CCN(Cc2cnc[nH]2)c2ccc(Cl)cc21 (centres unmarked) [ALP-UNI-b33a865d-1] | 1.12 µM | 
CN(C)C(=O)C[C@@]1(C(=O)Nc2cncc3ccccc23)CCOc2ccc(Cl)cc21 [MAT-POS-f9802937-4] | 20.5 µM | 
O=C(NCCc1cccc(F)c1)C(c1cccnc1)N(C(=O)c1c[nH]cn1)c1ccc(Cn2cccn2)cc1 (centres unmarked) [BRU-THA-92256091-86] | 35.5 µM | 
O=C(Nc1cncc2ccccc12)C1COc2ccc(Cl)cc21 (racemic) | 1.86 µM | 
Cc1ccc(CC(=O)Nc2cncc3ccccc23)cc1Cl [RAL-THA-2d450e86-8] | 1.09 µM | 
O=C(Nc1cncc2ccccc12)C1CCOc2c(O)cc(Cl)cc21 (centres unmarked) [ALP-POS-ce760d3f-1] | 0.579 µM | 
CC(C)Oc1ccc(N(C(=O)c2cocn2)C(C(=O)NCCc2cccc(F)c2)c2cccnc2)cc1 (centres unmarked) [ALP-POS-ced8ea4d-12] | 0.609 µM | 
Cc1ccncc1NC(=O)Cc1cc(Cl)cc(OC2CC(=O)N2)c1 (centres unmarked) | 2.28 µM | 
CC(C)(C)c1ccc(N(C(=O)c2c[nH]c(=O)s2)C(C(=O)NCCc2cccc(F)c2)c2cccnc2)cc1 (centres unmarked) [ALP-POS-305f6ec3-2] | 29.1 µM | 
O=C(c1cc(=O)[nH]c2ccccc12)N1CCN(c2cccc(Cl)c2)C(=O)C1 | 12.7 µM | 
NS(=O)(=O)c1[nH]ncc1C(=O)NC[C@@]1(C(=O)Nc2cncc3ccccc23)CCOc2ccc(Cl)cc21 [EDJ-MED-4c7486ba-8] | 1.99 µM | 
Cn1ncc2cc(N(C(=O)c3cocn3)C(C(=O)NCCc3cccc(F)c3)c3cccnc3)ccc21 (centres unmarked) [ALP-POS-ced8ea4d-8] | 48 µM | 
CC(C)(C)c1ccc(N(C(=O)c2cocn2)C(C(=O)NCCc2cccc(F)c2)c2cncnc2)cc1 (centres unmarked) [ALP-POS-d0876c20-17] | 2.92 µM | 

Compound | IC50 [1] | IC50 (Origin ChEMBL, ref ChEMBL)
O=C(Cc1cccc(Cl)c1)Nc1cncc2c1OCCC2 [EDJ-MED-976da9a6-1] | 10.9 µM | 
Cn1ccc2cc(N(C(=O)c3cocn3)C(C(=O)NCCc3cccc(F)c3)c3cccnc3)ccc21 (centres unmarked) [ALP-POS-ced8ea4d-20] | 23.8 µM | 
C/N=c1/nc(-c2ccccc2)n(-c2ccccc2)s1 [CHEMBL1188627, C/N=C(/N=C1c2ccccc2)\SN1c1ccccc1, reference compound] |  | 0.98 µM
O=C(Cc1ccc(Cl)c(Cl)c1)Nc1cncc2cnccc12 [VLA-UNK-82501c2c-1] | 1.85 µM | 
CNC(=O)C1(CC(=O)Nc2cncc3ccccc23)CCOc2ccc(Cl)cc21 (centres unmarked) [MAT-POS-78e1d523-2] | 30.7 µM | 
Cc1ccncc1NC(=O)Cc1cc(Cl)cc(NC2CC2C(F)(F)F)c1 (centres unmarked) | 22.5 µM | 
Cc1ccncc1NC(=O)Cc1cc(Cl)cc(S(N)(=O)=O)c1 [RAL-THA-6b94ceba-13] | 13.9 µM | 
CC(C)(C)c1ccc(N(C(=O)c2ccco2)C(C(=O)NCc2ccccc2)c2cccnc2)cc1 (centres unmarked) [ALP-POS-02c6a514-57] | 4.36 µM | 
O=C1CC(C(=O)Nc2cncc3ccccc23)c2cc(Cl)cc(Cl)c2N1 (centres unmarked) [MAT-POS-f39f51fd-1] | 2.74 µM | 
O=C(Nc1cccnc1)N(CCC1CCCCC1)c1cccc(Cl)c1 | 3.18 µM | 
COc1ncncc1C(C(=O)NCCc1cccc(F)c1)N(C(=O)c1cocn1)c1ccc(C(C)(C)C)cc1 (centres unmarked) [ALP-POS-d0876c20-19] | 8.43 µM | 
O=C(c1cc(=O)[nH]c2ccccc12)N1CCN(c2ccc(F)cc2)CC1 [BEN-DND-7e92b6ca-14] | 34.6 µM | 
Cc1noc(NC(=O)c2ccc(-c3cc(C(F)(F)F)nn3C)s2)c1[N+](=O)[O-] [CHEMBL427404, Cc1noc(NC(c2ccc(-c3cc(C(F)(F)F)nn3C)s2)=O)c1[N+]([O-])=O, reference compound] |  | 5 µM
CC(C)(C(N)=O)c1ccc(N(Cc2ccsc2)C(=O)Cn2nnc3ccccc32)cc1 [ALP-POS-c0c213c9-6] | 3.17 µM | 
CN(C)C(=O)C[C@]1(C(=O)Nc2cncc3ccccc23)CCOc2ccc(Cl)cc21 [MAT-POS-f9802937-3] | 1.3 µM | 
O=C(Cc1cccc(Cl)c1)Nc1cncc2nc[nH]c12 | 10.6 µM | 
CCOC(=O)Cc1ccc(-c2ccccc2)cc1 [CHEMBL1886408, CCOC(Cc(cc1)ccc1-c1ccccc1)=O, reference compound] |  | 0.2 µM
Cc1ccncc1N1CCC(c2cccc(Cl)c2)C1=O (centres unmarked) [EDJ-MED-e66f2cc5-1] | 28.8 µM | 
O=C(Cc1cccc(C(F)(F)F)c1)Nc1cncc2ccccc12 [RAL-THA-2d450e86-31] | 6.94 µM | 
COC(=O)[C@@H]1CC[C@H](NC(=O)C(c2cccnc2)N(C(=O)c2cocn2)c2ccc(C(C)(C)C)cc2)C1 (some centres unmarked) [ALP-POS-88a7a97e-6] | 2.38 µM | 
O=C(c1cc(=O)[nH]c2ccccc12)N1CCN(Cc2cccc(C(F)(F)F)c2)CC1 [ERI-UCB-a0b0dbcb-13] | 34.2 µM | 
O=C(NCCc1cccc(F)c1)C(c1cccnc1)N(C(=O)c1cocn1)c1ccc(C(F)(F)F)nc1 (centres unmarked) [ALP-POS-ced8ea4d-37] | 36.4 µM | 
O=C(Oc1cncc(Cl)c1)c1cscn1 [CHEMBL222628, O=C(c1cscn1)Oc1cc(Cl)cnc1, reference compound] |  | 0.27 µM
O=C(Cc1cncc2ccccc12)N1CCOc2ccc(Cl)cc21 [JOH-UNI-ea1df7a8-1] | 4.85 µM | 
Nc1ncc(S(=O)(=O)c2ccc(Cl)cc2)c(N)n1 [CHEMBL213581] |  | 6 µM
O=C(Nc1cncc2ccccc12)C1COc2c(Cl)cccc21 (centres unmarked) [FRA-DIA-c7e803f4-1] | 5.06 µM | 

Compound | IC50 [1] | IC50 (Origin ChEMBL, ref ChEMBL)
CN(C)C(C(=O)Nc1cncc2ccccc12)c1ccc(Cl)c(Cl)c1 (centres unmarked) [MAT-POS-1f3f1a6f-2] | 4.27 µM | 
O=C(Nc1cncc2ccccc12)C1CCNc2cc(Cl)c(Cl)cc21 (centres unmarked) [ALP-UNI-3735e77e-4] | 0.154 µM | 
O=C(Cc1cncc2ccccc12)Nc1cc(Cl)cc(OC2CCC(=O)N2)c1 (centres unmarked) [ERI-UCB-ce40166b-6] | 28.9 µM | 
Cc1cc(C(F)(F)F)nc2n[nH]c(NC(=O)Cc3cccc(Cl)c3)c12 [EDJ-MED-c8e7a002-5] | 90.7 µM | 
O=C(Nc1cncc2ccccc12)N1CCOc2ccc(Cl)cc21 [BEN-DND-f2e727cd-1] | 11.4 µM | 
COc1ccc(NC(=O)C(c2cccnc2)N(C(=O)c2cocn2)c2ccc(C(C)(C)C)cc2)cn1 (centres unmarked) [ALP-POS-88a7a97e-41] | 5.37 µM | 
Cc1ccncc1C(C(=O)NCCc1cccc(F)c1)N(C(=O)c1ccco1)c1ccc(C(C)(C)C)cc1 (centres unmarked) [ALP-POS-02c6a514-44] | 0.112 µM | 
O=C(Nc1cncc2ccccc12)C1(CO)CCOc2ccc(Cl)cc21 (centres unmarked) [MAT-POS-9db1e783-2] | 1.09 µM | 
CS(=O)(=O)Cc1ccc(N(C(=O)c2c[nH]cn2)C(C(=O)NCCc2cccc(F)c2)c2cccnc2)cc1 (centres unmarked) [BRU-THA-92256091-20] | 41.1 µM | 
CSc1[nH]nc(NC(=O)c2cccs2)c1S(=O)(=O)c1ccccc1 [CHEMBL378700] |  | 15 µM
O=C(Oc1cncc(Cl)c1)c1cc2ccccc2s1 [CHEMBL222893, O=C(c1cc(cccc2)c2s1)Oc1cc(Cl)cnc1, reference compound] |  | 0.095 µM
Cc1ccncc1NC(=O)CN1CCC(C)CC1 | 49.2 µM | 
Cn1nncc1CC(=O)NC(c1ccccc1)c1nc2ccccc2n1C (centres unmarked) [BAR-COM-4e090d3a-6] | 35.7 µM | 
Cc1ccncc1NC(=O)Cc1cccc(Cl)c1 | 19.2 µM | 
CS(=O)(=O)c1ccc(N2CCNCC2)cc1 | 91.6 µM | 
Cc1ccncc1NC(=O)Cc1cc(Cl)cc(NC2(C)CCC(F)(F)CC2)c1 [MAT-POS-044491d2-6] | 30.1 µM | 
CC(C)(C)c1ccc(N(C(=O)c2cocn2)C(C(=O)NCCc2cccc(F)c2)c2cnccn2)cc1 (centres unmarked) [ALP-POS-d0876c20-21] | 1.21 µM | 
Cc1c(Cl)ccc2c1[C@H](C(=O)Nc1cncc3ccccc13)CCO2 [EDJ-MED-e4b030d8-8] | 3.67 µM | 
COc1ccc(N(C(=O)c2ccco2)C(C(=O)NCCc2cccc(F)c2)c2cccnc2)cc1 (centres unmarked) [ALP-POS-b0bc6a46-22] | 30.5 µM | 
O=C(Nc1cnccc1Cl)c1cc(Cl)ccc1O [CHR-SOS-7098f804-10] | 24.2 µM | 
COC(=O)C(C)NC(=O)C(c1cccnc1)N(C(=O)c1cocn1)c1ccc(C(C)(C)C)cc1 (centres unmarked) [ALP-POS-88a7a97e-5] | 7.18 µM | 
CC(C)S(=O)(=O)c1ccc(N(C(=O)c2cocn2)C(C(=O)NCCc2cccc(F)c2)c2cccnc2)cc1 (centres unmarked) [ALP-POS-ced8ea4d-5] | 66.1 µM | 
O=C(Cc1cc(Cl)cc(OC2CC(=O)N2)c1)Nc1cncc2ccccc12 (centres unmarked) [ALP-POS-3b848b35-2, O=C(Cc1cc(Cl)cc(OC2CC(=O)N2)c1)Nc1cncc2ccccc12, reference compound] | 0.18 µM | 
CC(C)(C)c1ccc(N(C(=O)c2ccco2)C(C(=O)NCCN2CCOCC2)c2cccnc2)cc1 (centres unmarked) [ALP-POS-02c6a514-55] | 2.19 µM | 
COc1ccc(N(C(=O)c2cocn2)C(C(=O)NCCc2cccc(F)c2)c2cccnc2)cc1 (centres unmarked) [ALP-POS-ced8ea4d-19] | 22.2 µM | 
